Measurements as given in PubChem BioAssay (NCI).
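Abbreviation: GI50, concentration required for 50% inhibition of growth. TGI is the concentration that stops growth completely.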

Assays:
Test in all cases: NCI anticancer screen, dose series, 384-well format
786-0 renal = system: 786-0 renal
A498 renal = system: A498 renal
A549 NSCLC = system: A549 NSCLC
ACHN renal = system: ACHN renal
BT-549 breast = system: BT-549 breast
CAKI-1 renal = system: CAKI-1 renal
COLO 205 colon = system: COLO 205 colon
DU-145 prostate = system: DU-145 prostate
EKVX NSCLC = system: EKVX NSCLC
HCT-116 colon = system: HCT-116 colon
HCT-15 colon = system: HCT-15 colon
HL-60(TB) leukemia = system: HL-60(TB) leukemia
HOP-62 NSCLC = system: HOP-62 NSCLC
HOP-92 NSCLC = system: HOP-92 NSCLC
HS 578T breast = system: HS 578T breast
HT29 colon = system: HT29 colon
IGROV1 ovarian = system: IGROV1 ovarian
K-562 leukemia = system: K-562 leukemia
KM12 colon = system: KM12 colon
M14 melanoma = system: M14 melanoma
MALME-3M melanoma = system: MALME-3M melanoma
MCF7 breast = system: MCF7 breast
MDA-MB-231 breast = system: MDA-MB-231 breast
MDA-MB-435 melanoma = system: MDA-MB-435 melanoma
MDA-MB-468 breast = system: MDA-MB-468 breast
MOLT-4 leukemia = system: MOLT-4 leukemia
NCI-H226 lung = system: NCI-H226 lung
NCI-H23 lung = system: NCI-H23 lung
NCI-H322M lung = system: NCI-H322M lung
NCI-H460 NSCLC = system: NCI-H460 NSCLC
NCI-H522 lung = system: NCI-H522 lung
OVCAR-3 ovarian = system: OVCAR-3 ovarian
OVCAR-4 ovarian = system: OVCAR-4 ovarian
OVCAR-5 ovarian = system: OVCAR-5 ovarian
OVCAR-8 ovarian = system: OVCAR-8 ovarian
PC-3 prostate = system: PC-3 prostate
RXF 393 renal = system: RXF 393 renal
SF-268 CNS = system: SF-268 CNS
SF-295 CNS = system: SF-295 CNS
SF-539 CNS = system: SF-539 CNS
SK-MEL-2 melanoma = system: SK-MEL-2 melanoma
SK-MEL-28 melanoma = system: SK-MEL-28 melanoma
SK-MEL-5 melanoma = system: SK-MEL-5 melanoma
SK-OV-3 ovarian = system: SK-OV-3 ovarian
SN12C renal = system: SN12C renal
SNB-19 CNS = system: SNB-19 CNS
SNB-75 CNS = system: SNB-75 CNS
SR leukemia = system: SR leukemia
SW-620 colon = system: SW-620 colon
T-47D breast = system: T-47D breast
TK-10 renal = system: TK-10 renal
U251 glioblastoma = system: U251 glioblastoma
UACC-257 melanoma = system: UACC-257 melanoma
UACC-62 melanoma = system: UACC-62 melanoma
UO-31 renal = system: UO-31 renal
CCRF-CEM leukemia = system: CCRF-CEM leukemia
HCC-2998 colon = system: HCC-2998 colon
LOX IMVI melanoma = system: LOX IMVI melanoma
NCI/ADR-RES ovarian = system: NCI/ADR-RES ovarian
RPMI-8226 leukemia = system: RPMI-8226 leukemia

## CCc1c2c(nc3ccc(OC(=O)N4CCC(N5CCCCC5)CC4)cc13)-c1cc3c(c(=O)n1C2)COC(=O)[C@]3(O)CC
786-0 renal
  GI50: 3.02 µM
  TGI: 10.4 µM
A498 renal
  GI50: 5.29 µM
  TGI: 19.9 µM
A549 NSCLC
  GI50: 8.58 µM
  TGI: 94.1 µM
ACHN renal
  GI50: 2.11 µM
  TGI: 5.05 µM
BT-549 breast
  GI50: 2.51 µM
  TGI: 13.4 µM
CAKI-1 renal
  GI50: 3.08 µM
  TGI: > 100 µM
COLO 205 colon
  GI50: 2.7 µM
  TGI: 21 µM
DU-145 prostate
  GI50: 2.56 µM
  TGI: 9.11 µM
EKVX NSCLC
  GI50: 13.5 µM
  TGI: 45 µM
HCT-116 colon
  GI50: 1.84 µM
  TGI: 15.5 µM
HCT-15 colon
  GI50: 5.87 µM
  TGI: 24.1 µM
HL-60(TB) leukemia
  GI50: 1.62 µM
  TGI: 3 µM
HOP-62 NSCLC
  GI50: 1.57 µM
  TGI: 4.42 µM
HOP-92 NSCLC
  GI50: 6.81 µM
  TGI: 43.9 µM
HS 578T breast
  GI50: 1.69 µM
  TGI: 17.4 µM
HT29 colon
  GI50: 6.08 µM
  TGI: 19.7 µM
IGROV1 ovarian
  GI50: 10.3 µM
  TGI: 29.1 µM
K-562 leukemia
  GI50: 3.12 µM
  TGI: 20.8 µM
KM12 colon
  GI50: 2.04 µM
  TGI: 10.7 µM
M14 melanoma
  GI50: 4.12 µM
  TGI: 26 µM
MALME-3M melanoma
  GI50: 10.7 µM
  TGI: 36.2 µM
MCF7 breast
  GI50: 1.3 µM
  TGI: 14.8 µM
MDA-MB-231 breast
  GI50: 16.9 µM
  TGI: > 100 µM
MDA-MB-435 melanoma
  GI50: 10.9 µM
  TGI: 25.7 µM
MDA-MB-468 breast
  GI50: 0.731 µM
  TGI: 3.01 µM
MOLT-4 leukemia
  GI50: 0.153 µM
  TGI: 0.301 µM
NCI-H226 lung
  GI50: 3.43 µM
  TGI: 18.8 µM
NCI-H23 lung
  GI50: 2.71 µM
  TGI: 9.66 µM
NCI-H322M lung
  GI50: 16 µM
  TGI: 42.3 µM
NCI-H460 NSCLC
  GI50: 4.26 µM
  TGI: 24.5 µM
NCI-H522 lung
  GI50: 1.85 µM
  TGI: 16.7 µM
OVCAR-3 ovarian
  GI50: 1.45 µM
  TGI: 14.2 µM
OVCAR-4 ovarian
  GI50: 21.5 µM
  TGI: 59.8 µM
OVCAR-5 ovarian
  GI50: 14.9 µM
  TGI: 34.7 µM
OVCAR-8 ovarian
  GI50: 4.03 µM
  TGI: 54.7 µM
PC-3 prostate
  GI50: 12.1 µM
  TGI: 66.5 µM
RXF 393 renal
  GI50: 0.767 µM
  TGI: 5.45 µM
SF-268 CNS
  GI50: 1.07 µM
  TGI: 10.2 µM
SF-295 CNS
  GI50: 1.89 µM
  TGI: 4.34 µM
SF-539 CNS
  GI50: 2.08 µM
  TGI: 5.14 µM
SK-MEL-2 melanoma
  GI50: 16.2 µM
  TGI: 40.3 µM
SK-MEL-28 melanoma
  GI50: 7.12 µM
  TGI: 36.8 µM
SK-MEL-5 melanoma
  GI50: 2.28 µM
  TGI: 10.8 µM
SK-OV-3 ovarian
  GI50: 2.91 µM
  TGI: 16.4 µM
SN12C renal
  GI50: 2.58 µM
  TGI: 7.58 µM
SNB-19 CNS
  GI50: 4.15 µM
  TGI: > 100 µM
SNB-75 CNS
  GI50: 2.3 µM
  TGI: 8.61 µM
SR leukemia
  GI50: 0.15 µM
  TGI: 0.299 µM
SW-620 colon
  GI50: 0.851 µM
  TGI: 18.1 µM
T-47D breast
  GI50: 3.53 µM
  TGI: 41 µM
TK-10 renal
  GI50: 9.46 µM
  TGI: 38.7 µM
U251 glioblastoma
  GI50: 2.11 µM
  TGI: 11.8 µM
UACC-257 melanoma
  GI50: 7.82 µM
  TGI: 29.3 µM
UACC-62 melanoma
  GI50: 1.21 µM
  TGI: 7.79 µM
UO-31 renal
  GI50: 8.09 µM
  TGI: 41.2 µM

## CCNC(=O)c1noc(-c2cc(C(C)C)c(O)cc2O)c1-c1ccc(CN2CCOCC2)cc1
786-0 renal
  GI50: < 0.01 µM
  TGI: 0.0304 µM
A498 renal
  GI50: < 0.01 µM
  TGI: 3.88 µM
A549 NSCLC
  GI50: < 0.01 µM
  TGI: 10.7 µM
ACHN renal
  GI50: < 0.01 µM
  TGI: 15.5 µM
BT-549 breast
  GI50: < 0.01 µM
  TGI: < 0.01 µM
CAKI-1 renal
  GI50: < 0.01 µM
  TGI: 12.6 µM
CCRF-CEM leukemia
  GI50: < 0.01 µM
  TGI: < 0.01 µM
COLO 205 colon
  GI50: 0.0207 µM
  TGI: 0.157 µM
DU-145 prostate
  GI50: < 0.01 µM
  TGI: < 0.01 µM
EKVX NSCLC
  GI50: < 0.01 µM
  TGI: 1.03 µM
HCC-2998 colon
  GI50: < 0.01 µM
  TGI: < 0.01 µM
HCT-15 colon
  GI50: < 0.01 µM
  TGI: 10.4 µM
HL-60(TB) leukemia
  GI50: < 0.01 µM
  TGI: < 0.01 µM
HOP-62 NSCLC
  GI50: < 0.01 µM
  TGI: 0.0131 µM
HOP-92 NSCLC
  GI50: < 0.01 µM
  TGI: < 0.01 µM
HS 578T breast
  GI50: < 0.01 µM
  TGI: < 0.01 µM
HT29 colon
  GI50: 0.0859 µM
  TGI: 10.4 µM
IGROV1 ovarian
  GI50: 0.0121 µM
  TGI: 0.037 µM
K-562 leukemia
  GI50: < 0.01 µM
  TGI: < 0.01 µM
KM12 colon
  GI50: < 0.01 µM
  TGI: 0.013 µM
LOX IMVI melanoma
  GI50: < 0.01 µM
  TGI: < 0.01 µM
M14 melanoma
  GI50: < 0.01 µM
  TGI: 11.2 µM
MALME-3M melanoma
  GI50: < 0.01 µM
  TGI: < 0.01 µM
MCF7 breast
  GI50: < 0.01 µM
  TGI: 0.0112 µM
MDA-MB-231 breast
  GI50: < 0.01 µM
  TGI: < 0.01 µM
MDA-MB-435 melanoma
  GI50: < 0.01 µM
  TGI: 14.9 µM
MDA-MB-468 breast
  GI50: < 0.01 µM
  TGI: < 0.01 µM
MOLT-4 leukemia
  GI50: < 0.01 µM
  TGI: < 0.01 µM
NCI-H226 lung
  GI50: < 0.01 µM
  TGI: 11.7 µM
NCI-H23 lung
  GI50: < 0.01 µM
  TGI: < 0.01 µM
NCI-H322M lung
  GI50: < 0.01 µM
  TGI: 12.2 µM
NCI-H460 NSCLC
  GI50: < 0.01 µM
  TGI: < 0.01 µM
NCI-H522 lung
  GI50: < 0.01 µM
  TGI: 0.0236 µM
NCI/ADR-RES ovarian
  GI50: 0.0669 µM
  TGI: 0.269 µM
OVCAR-3 ovarian
  GI50: < 0.01 µM
  TGI: < 0.01 µM
OVCAR-4 ovarian
  GI50: < 0.01 µM
  TGI: < 0.01 µM
OVCAR-5 ovarian
  GI50: 0.0169 µM
  TGI: 0.0761 µM
OVCAR-8 ovarian
  GI50: < 0.01 µM
  TGI: < 0.01 µM
PC-3 prostate
  GI50: < 0.01 µM
  TGI: 0.0296 µM
RPMI-8226 leukemia
  GI50: < 0.01 µM
  TGI: < 0.01 µM
RXF 393 renal
  GI50: < 0.01 µM
  TGI: < 0.01 µM
SF-268 CNS
  GI50: < 0.01 µM
  TGI: 10.7 µM
SF-295 CNS
  GI50: 0.0247 µM
  TGI: 0.115 µM
SF-539 CNS
  GI50: < 0.01 µM
  TGI: < 0.01 µM
SK-MEL-28 melanoma
  GI50: < 0.01 µM
  TGI: 0.0428 µM
SK-OV-3 ovarian
  GI50: < 0.01 µM
  TGI: 11 µM
SN12C renal
  GI50: < 0.01 µM
  TGI: 0.028 µM
SNB-19 CNS
  GI50: 0.0131 µM
  TGI: 0.0637 µM
SNB-75 CNS
  GI50: < 0.01 µM
  TGI: < 0.01 µM
SR leukemia
  GI50: < 0.01 µM
  TGI: < 0.01 µM
SW-620 colon
  GI50: < 0.01 µM
  TGI: < 0.01 µM
T-47D breast
  GI50: < 0.01 µM
  TGI: 0.0448 µM
TK-10 renal
  GI50: 0.0244 µM
  TGI: 0.081 µM
U251 glioblastoma
  GI50: < 0.01 µM
  TGI: 0.0297 µM
UACC-257 melanoma
  GI50: < 0.01 µM
  TGI: 0.42 µM
UACC-62 melanoma
  GI50: < 0.01 µM
  TGI: < 0.01 µM
UO-31 renal
  GI50: 0.0494 µM
  TGI: > 100 µM
